Where a name gives a salt, the structure may show the parent alone.
What was measured:
Format in all cases: functional, cell-based
[1] = biological target: T1, Solute carrier organic anion transporter family member 1B1 (Homo sapiens, UniProt Q9Y6L6); assay: TP_TRANSPORTER: inhibition of E1S uptake (E1S: 0.04 uM, E2 3SO4 17betaG: 100 uM) in OATP-C-expressing HEK293 cells; conditions: hek293, 100 µM
T1 sequence (Q9Y6L6 whole entry): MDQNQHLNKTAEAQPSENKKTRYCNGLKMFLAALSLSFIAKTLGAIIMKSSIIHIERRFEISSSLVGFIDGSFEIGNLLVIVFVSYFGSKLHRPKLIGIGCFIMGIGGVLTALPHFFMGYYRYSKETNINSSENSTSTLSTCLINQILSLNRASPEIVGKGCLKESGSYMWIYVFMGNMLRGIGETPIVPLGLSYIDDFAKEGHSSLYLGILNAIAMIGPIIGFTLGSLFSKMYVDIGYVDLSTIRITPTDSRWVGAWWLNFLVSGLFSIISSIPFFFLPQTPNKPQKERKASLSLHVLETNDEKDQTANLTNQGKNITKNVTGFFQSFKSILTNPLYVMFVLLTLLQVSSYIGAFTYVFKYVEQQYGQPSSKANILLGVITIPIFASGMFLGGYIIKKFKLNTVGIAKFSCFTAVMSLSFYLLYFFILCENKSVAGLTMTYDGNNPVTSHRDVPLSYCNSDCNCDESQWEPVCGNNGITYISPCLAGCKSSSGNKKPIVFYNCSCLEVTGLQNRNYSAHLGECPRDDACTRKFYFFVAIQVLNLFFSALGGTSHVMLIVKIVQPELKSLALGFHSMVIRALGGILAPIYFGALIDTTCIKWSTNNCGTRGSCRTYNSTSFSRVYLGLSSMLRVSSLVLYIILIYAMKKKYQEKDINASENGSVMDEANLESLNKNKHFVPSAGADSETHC

[2] = biological target: T1, Solute carrier organic anion transporter family member 1B1; assay: TP_TRANSPORTER: inhibition of E1S uptake (E1S: 0.04 uM, Estradiol-3-sulfate: 100 uM) in OATP-C-expressing HEK293 cells; conditions: hek293, 100 µM
[3] = biological target: T2, Solute carrier organic anion transporter family member 2B1 (Homo sapiens, UniProt O94956); assay: TP_TRANSPORTER: inhibition of E1S uptake (E1S: 0.04 uM, Estradiol-3-sulfate: 100 uM) in OATP-B-expressing HEK293 cells; conditions: hek293, 100 µM
T2 sequence (O94956 whole entry): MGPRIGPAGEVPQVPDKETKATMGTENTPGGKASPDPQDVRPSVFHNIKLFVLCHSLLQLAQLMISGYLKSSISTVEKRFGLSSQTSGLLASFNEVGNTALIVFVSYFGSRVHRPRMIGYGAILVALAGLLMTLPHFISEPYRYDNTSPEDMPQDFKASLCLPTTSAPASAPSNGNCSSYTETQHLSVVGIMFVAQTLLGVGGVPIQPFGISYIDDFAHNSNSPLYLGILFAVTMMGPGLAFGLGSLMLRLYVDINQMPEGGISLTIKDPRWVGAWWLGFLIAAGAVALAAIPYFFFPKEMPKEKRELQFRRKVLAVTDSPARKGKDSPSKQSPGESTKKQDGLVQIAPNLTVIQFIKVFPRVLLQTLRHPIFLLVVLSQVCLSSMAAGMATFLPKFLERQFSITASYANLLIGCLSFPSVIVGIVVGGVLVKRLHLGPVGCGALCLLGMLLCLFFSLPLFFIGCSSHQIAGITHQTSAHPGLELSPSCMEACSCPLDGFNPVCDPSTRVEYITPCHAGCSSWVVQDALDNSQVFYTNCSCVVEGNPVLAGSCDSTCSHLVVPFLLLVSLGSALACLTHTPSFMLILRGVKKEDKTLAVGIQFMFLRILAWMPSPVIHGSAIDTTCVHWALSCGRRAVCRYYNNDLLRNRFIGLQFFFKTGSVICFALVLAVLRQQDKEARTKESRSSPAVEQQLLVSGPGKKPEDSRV

[4] = biological target: T2, Solute carrier organic anion transporter family member 2B1; assay: TP_TRANSPORTER: inhibition of E1S uptake (E1S: 0.04 uM, #Estrone: 100 uM) in OATP-B-expressing HEK293 cells; conditions: hek293, 100 µM
[5] = biological target: T1, Solute carrier organic anion transporter family member 1B1; assay: TP_TRANSPORTER: inhibition of E1S uptake (E1S: 0.04 uM, #Estrone: 100 uM) in OATP-C-expressing HEK293 cells; conditions: hek293, 100 µM
[6] = biological target: T1, Solute carrier organic anion transporter family member 1B1; assay: TP_TRANSPORTER: inhibition of E1S uptake (E1S: 0.04 uM, E217betaG: 100 uM) in OATP-C-expressing HEK293 cells; conditions: hek293, 100 µM
[7] = biological target: T1, Solute carrier organic anion transporter family member 1B1; assay: TP_TRANSPORTER: inhibition of E217betaG uptake in OATP-C-expressing HEK293 cells
[8] = biological target: T1, Solute carrier organic anion transporter family member 1B1; assay: TP_TRANSPORTER: inhibition of E1S uptake (E1S: 0.04 uM, Estrone-3-glucuronide: 100 uM) in OATP-C-expressing HEK293 cells; conditions: hek293, 100 µM
[9] = biological target: T2, Solute carrier organic anion transporter family member 2B1; assay: TP_TRANSPORTER: inhibition of E1S uptake (E1S: 0.04 uM, beta-Estradiol: 100 uM) in OATP-B-expressing HEK293 cells; conditions: hek293, 100 µM
[10] = biological target: T1, Solute carrier organic anion transporter family member 1B1; assay: TP_TRANSPORTER: inhibition of E1S uptake (E1S: 0.04 uM, beta-Estradiol: 100 uM) in OATP-C-expressing HEK293 cells; conditions: hek293, 100 µM
[11] = substrate: C[C@]12CC[C@@H]3c4ccc(OS(=O)(=O)O)cc4CC[C@H]3[C@@H]1CCC2=O; assay: TP_TRANSPORTER: uptake in OATP-B-expressing HEK293 cells
[12] = substrate: C[C@]12CC[C@@H]3c4ccc(O)cc4CC[C@H]3[C@@H]1CC[C@@H]2O[C@@H]1O[C@H](C(=O)O)[C@@H](O)[C@H](O)[C@H]1O; assay: TP_TRANSPORTER: uptake in OATP-C-expressing HEK293 cells

In the case of `C[C@]12CC[C@@H]3c4ccc(OS(=O)(=O)O)cc4CC[C@H]3[C@@H]1CC[C@@H]2O[C@@H]1O[C@H](C(=O)O)[C@@H](O)[C@H](O)[C@H]1O` [ESTRADIOL GLUCURONIDE SULFATE], the Activity [1] is reported as “inhibitor [(at a rough estimate) 40 % of control]”.

For `C[C@]12CC[C@@H]3c4ccc(OS(=O)(=O)O)cc4CC[C@H]3[C@@H]1CC[C@@H]2O`, the Activity [2] was “inhibitor [(at a rough estimate) 10 % of control]” and the Activity [3] was “inhibitor [(at a rough estimate) 30 % of control]”.

With `C[C@]12CC[C@@H]3c4ccc(O)cc4CC[C@H]3[C@@H]1CCC2=O` [ESTRONE] the Activity [4] was “inhibitor [(at a rough estimate) 45 % of control]” and the Activity [5] was “inhibitor [(at a rough estimate) 40 % of control]”.

In the case of `C[C@]12CC[C@@H]3c4ccc(O)cc4CC[C@H]3[C@@H]1CC[C@@H]2O[C@@H]1O[C@H](C(=O)O)[C@@H](O)[C@H](O)[C@H]1O` [ESTRADIOL 17B GLUCURONIDE], the Activity [6] is reported as “inhibitor [(at a rough estimate) <1 % of control]” and the Ki [7] is reported as 4430 nM.

With `C[C@]12CC[C@@H]3c4ccc(O[C@@H]5O[C@H](C(=O)O)[C@@H](O)[C@H](O)[C@H]5O)cc4CC[C@H]3[C@@H]1CCC2=O` the Activity [8] was “inhibitor [(at a rough estimate) 40 % of control]”.

In the case of `C[C@]12CC[C@@H]3c4ccc(OS(=O)(=O)O)cc4CC[C@H]3[C@@H]1CCC2=O` [ESTRONE SULFURIC ACID], the Ki [7] is reported as 45.8 nM.

With `C[C@]12CC[C@@H]3c4ccc(O)cc4CC[C@H]3[C@@H]1CC[C@@H]2O` [ESTRADIOL] the Activity [9] was “inhibitor [(at a rough estimate) 60 % of control]” and the Activity [10] was “inhibitor [(at a rough estimate) 35 % of control]”.

B1: Solute carrier organic anion transporter family member 2B1 (Homo sapiens) (protein)
chain: MGPRIGPAGEVPQVPDKETKATMGTENTPGGKASPDPQDVRPSVFHNIKLFVLCHSLLQLAQLMISGYLKSSISTVEKRFGLSSQTSGLLASFNEVGNTALIVFVSYFGSRVHRPRMIGYGAILVALAGLLMTLPHFISEPYRYDNTSPEDMPQDFKASLCLPTTSAPASAPSNGNCSSYTETQHLSVVGIMFVAQTLLGVGGVPIQPFGISYIDDFAHNSNSPLYLGILFAVTMMGPGLAFGLGSLMLRLYVDINQMPEGGISLTIKDPRWVGAWWLGFLIAAGAVALAAIPYFFFPKEMPKEKRELQFRRKVLAVTDSPARKGKDSPSKQSPGESTKKQDGLVQIAPNLTVIQFIKVFPRVLLQTLRHPIFLLVVLSQVCLSSMAAGMATFLPKFLERQFSITASYANLLIGCLSFPSVIVGIVVGGVLVKRLHLGPVGCGALCLLGMLLCLFFSLPLFFIGCSSHQIAGITHQTSAHPGLELSPSCMEACSCPLDGFNPVCDPSTRVEYITPCHAGCSSWVVQDALDNSQVFYTNCSCVVEGNPVLAGSCDSTCSHLVVPFLLLVSLGSALACLTHTPSFMLILRGVKKEDKTLAVGIQFMFLRILAWMPSPVIHGSAIDTTCVHWALSCGRRAVCRYYNNDLLRNRFIGLQFFFKTGSVICFALVLAVLRQQDKEARTKESRSSPAVEQQLLVSGPGKKPEDSRV
B1 was tested, and the Km [11] was 12.5 µM.

B2: Solute carrier organic anion transporter family member 1B1 (Homo sapiens) (protein)
chain: MDQNQHLNKTAEAQPSENKKTRYCNGLKMFLAALSLSFIAKTLGAIIMKSSIIHIERRFEISSSLVGFIDGSFEIGNLLVIVFVSYFGSKLHRPKLIGIGCFIMGIGGVLTALPHFFMGYYRYSKETNINSSENSTSTLSTCLINQILSLNRASPEIVGKGCLKESGSYMWIYVFMGNMLRGIGETPIVPLGLSYIDDFAKEGHSSLYLGILNAIAMIGPIIGFTLGSLFSKMYVDIGYVDLSTIRITPTDSRWVGAWWLNFLVSGLFSIISSIPFFFLPQTPNKPQKERKASLSLHVLETNDEKDQTANLTNQGKNITKNVTGFFQSFKSILTNPLYVMFVLLTLLQVSSYIGAFTYVFKYVEQQYGQPSSKANILLGVITIPIFASGMFLGGYIIKKFKLNTVGIAKFSCFTAVMSLSFYLLYFFILCENKSVAGLTMTYDGNNPVTSHRDVPLSYCNSDCNCDESQWEPVCGNNGITYISPCLAGCKSSSGNKKPIVFYNCSCLEVTGLQNRNYSAHLGECPRDDACTRKFYFFVAIQVLNLFFSALGGTSHVMLIVKIVQPELKSLALGFHSMVIRALGGILAPIYFGALIDTTCIKWSTNNCGTRGSCRTYNSTSFSRVYLGLSSMLRVSSLVLYIILIYAMKKKYQEKDINASENGSVMDEANLESLNKNKHFVPSAGADSETHC
Work on B2 yielded a Km [12] of 3.71 µM.

Source: ChEMBL document CHEMBL2074019, “Functional characterization of human organic anion transporting polypeptide B (OATP-B) in comparison with liver-specific OATP-C” (Pharm Res, 2001)
